Where two headings read alike, the source gives them in different places.
What was measured:
[1] = target: T1, human dopamine transporter (hDAT) (Homo sapiens, UniProt Q01959); experiment: biochemical; format: binding
[2] = target: T2, human serotonin transporter (hSERT) (Homo sapiens, UniProt P31645); experiment: biochemical; settings: [125I]RTI-55, read-out: SERT binding affinity Ki
[3] = target: T3, human norepinephrine transporter (hNET) (Homo sapiens, UniProt P23975); experiment: biochemical; settings: [125I]RTI-55, read-out: NET binding affinity Ki
[4] = target: T1, human dopamine transporter (hDAT); experiment: cell-based
[5] = target: T2, human serotonin transporter (hSERT); experiment: cell-based
[6] = target: T3, human norepinephrine transporter (hNET); experiment: cell-based; settings: read-out: Reuptake Inhibition [3H]NE IC50
[7] = Reuptake Inhibition [3H]DA IC50, Table 2-1
[8] = Reuptake Inhibition [3H]5-HT IC50, Table 2-1
[9] = Reuptake Inhibition [3H]DA IC50, Table 1-1
[10] = Reuptake Inhibition [3H]5-HT IC50, Table 1-1
[11] = Table 4, [125I]RTI-55, read-out: DAT binding affinity Ki
[12] = Table 4-1, read-out: Reuptake Inhibition [3H]DA IC50
[13] = Table 4-1, read-out: Reuptake Inhibition [3H]5-HT IC50

T2 sequence (P31645 whole entry): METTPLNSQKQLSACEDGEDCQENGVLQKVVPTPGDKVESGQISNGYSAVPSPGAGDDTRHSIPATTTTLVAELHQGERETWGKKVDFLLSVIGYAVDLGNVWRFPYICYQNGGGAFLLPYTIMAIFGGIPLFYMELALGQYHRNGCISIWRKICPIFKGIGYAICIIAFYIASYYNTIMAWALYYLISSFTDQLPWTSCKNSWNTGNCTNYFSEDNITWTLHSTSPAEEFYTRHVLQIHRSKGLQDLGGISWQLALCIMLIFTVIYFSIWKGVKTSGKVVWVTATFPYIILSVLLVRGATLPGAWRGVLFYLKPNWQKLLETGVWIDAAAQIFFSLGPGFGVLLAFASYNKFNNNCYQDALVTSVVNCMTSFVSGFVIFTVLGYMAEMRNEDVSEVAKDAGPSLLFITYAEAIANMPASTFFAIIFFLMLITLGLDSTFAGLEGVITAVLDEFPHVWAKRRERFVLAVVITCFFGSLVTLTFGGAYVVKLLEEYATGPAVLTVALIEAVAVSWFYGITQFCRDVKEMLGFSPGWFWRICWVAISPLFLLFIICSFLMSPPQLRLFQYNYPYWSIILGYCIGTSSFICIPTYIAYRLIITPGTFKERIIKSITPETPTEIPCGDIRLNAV
T1 sequence (Q01959 whole entry): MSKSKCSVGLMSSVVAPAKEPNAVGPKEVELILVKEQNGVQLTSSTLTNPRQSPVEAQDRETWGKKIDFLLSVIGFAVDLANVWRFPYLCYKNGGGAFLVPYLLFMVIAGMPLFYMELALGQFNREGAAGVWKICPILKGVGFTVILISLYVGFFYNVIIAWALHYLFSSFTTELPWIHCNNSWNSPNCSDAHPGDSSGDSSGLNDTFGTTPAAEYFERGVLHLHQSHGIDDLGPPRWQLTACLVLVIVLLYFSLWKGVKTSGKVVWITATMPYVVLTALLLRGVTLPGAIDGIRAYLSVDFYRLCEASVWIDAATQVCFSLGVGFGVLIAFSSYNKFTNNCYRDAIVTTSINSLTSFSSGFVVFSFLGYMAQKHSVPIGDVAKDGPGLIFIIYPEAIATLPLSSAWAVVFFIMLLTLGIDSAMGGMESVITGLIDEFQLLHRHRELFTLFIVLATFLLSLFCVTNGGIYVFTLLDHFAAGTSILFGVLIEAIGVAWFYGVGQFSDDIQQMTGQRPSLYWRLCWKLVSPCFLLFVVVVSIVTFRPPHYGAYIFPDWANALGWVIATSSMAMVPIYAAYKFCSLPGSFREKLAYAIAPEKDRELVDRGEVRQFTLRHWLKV
T3 sequence (P23975 whole entry): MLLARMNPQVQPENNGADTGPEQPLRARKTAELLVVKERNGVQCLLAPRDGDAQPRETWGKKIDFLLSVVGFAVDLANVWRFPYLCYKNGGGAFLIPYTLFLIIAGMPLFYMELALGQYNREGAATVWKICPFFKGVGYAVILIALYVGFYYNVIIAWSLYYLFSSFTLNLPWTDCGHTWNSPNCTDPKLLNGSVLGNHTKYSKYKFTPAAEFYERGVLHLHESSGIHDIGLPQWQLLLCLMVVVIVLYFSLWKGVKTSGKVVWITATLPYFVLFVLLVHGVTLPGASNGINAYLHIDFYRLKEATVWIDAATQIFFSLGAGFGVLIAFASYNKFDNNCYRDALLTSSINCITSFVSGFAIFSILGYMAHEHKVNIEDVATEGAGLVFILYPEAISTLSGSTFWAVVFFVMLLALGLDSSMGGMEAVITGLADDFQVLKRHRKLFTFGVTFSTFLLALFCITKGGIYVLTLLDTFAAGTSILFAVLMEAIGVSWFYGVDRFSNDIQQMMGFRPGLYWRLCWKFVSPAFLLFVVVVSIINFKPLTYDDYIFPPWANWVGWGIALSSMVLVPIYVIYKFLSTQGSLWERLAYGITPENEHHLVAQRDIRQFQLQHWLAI

Row | Structure (SMILES) | Ki [1] [nM] | Binding Ratios NET/DAT ([1]; Table 2) | Binding Ratios SERT/DAT ([1]; Table 2) | Ki ([2]; Table 2) [µM] | Ki ([3]; Table 2) [nM] | IC50 [4, 7] [µM] | Discrimination Ratios [3H]DA reuptake/DAT binding ([4]; Table 2-1) | IC50 [5, 8] [nM] | IC50 ([6]; Table 2-1) [nM] | Binding Ratios NET/DAT ([1]; Table 1) | Binding Ratios SERT/DAT ([1]; Table 1) | Ki ([2]; Table 1) [µM] | Ki ([3]; Table 1) [nM] | IC50 [4, 9] [µM] | Discrimination Ratios [3H]DA reuptake/DAT binding ([4]; Table 1-1) | IC50 [5, 10] [nM] | IC50 ([6]; Table 1-1) [nM] | Binding Ratios SERT/DAT ([1]; Table 4) | Ki ([2]; Table 4) [µM] | Discrimination Ratios [3H]DA reuptake/DAT binding ([4]; Table 4-1) | further results
1 | O=C(NCC1CCCN(CCCCOC(c2ccc(F)cc2)c2ccc(F)cc2)C1)c1cccc(C(F)(F)F)c1 (stereo not shown) [Compound 11] | 403 ± 81 | 0.1 | 1.2 | 0.496 ± 0.177 | 49 ± 21 | 0.046 | 0.1 | 511 | 53 ± 3 |  |  |  |  |  |  |  |  |  |  |  | 
2 | O=C(NCC1CCCN(CCCCOC(c2ccc(F)cc2)c2ccc(F)cc2)C1)Nc1ccc(F)cc1 (stereo not shown) [Compound 12] | 93 | 1.1 | 2.1 | 0.198 | 99 | 0.092 ± 0.024 | 1.0 | 123 ± 16 | 20 |  |  |  |  |  |  |  |  |  |  |  | 
3 | Fc1ccc(C(OCCCCN2CCN(C(=S)Nc3cccnc3)CC2)c2ccc(F)cc2)cc1 [Compound 6] | 170 ± 24 |  |  |  |  |  |  |  |  | 14.4 | 6.4 | 1.08 ± 0.3 | 2450 ± 367 | 0.097 ± 0.019 | 0.6 | 308 ± 102 | 359 ± 108 |  |  |  | 
4 | Fc1ccc(C(OCCCCN2CCN(Cc3ccc4c(c3)OCO4)CC2)c2ccc(F)cc2)cc1 [Compound 41, 1-Benzo[1,3]dioxol-5-ylmethyl-4-[4-[bis(4-fluorophenyl)methoxy]butyl]piperazine] | 33 ± 13 |  |  |  |  |  |  |  |  |  |  |  |  |  |  |  |  |  |  |  | Binding Ratios NET/DAT ([1]; Table 5): 1.7; Binding Ratios SERT/DAT ([1]; Table 5): 1.8; Ki ([2]; Table 5, oxalate salts): 0.059 ± 0.022 µM; Ki ([3]; Table 5, oxalate salts): 55 ± 18 nM; IC50 ([4]; Reuptake Inhibition [3H]DA IC50, Table 6): 1 ± 0.06 µM; Discrimination Ratios (DR) [3H]DA reuptake/DAT binding ([4]; Table 6): 30.3; IC50 ([5]; Reuptake Inhibition [3H]5-HT IC50, Table 6): 3280 ± 610 nM; IC50 ([6]; Table 6): 43 ± 19 nM
5 | O=C(CCN1C(=O)C=CC1=O)NCC1(c2ccccc2)CCN(CCCCOC(c2ccc(F)cc2)c2ccc(F)cc2)CC1 [Compound 25] |  |  |  |  |  |  |  |  |  |  |  |  |  |  |  |  |  | 7.7 | 6.4 ± 2.68 | 1.2 | Ki [1, 11]: 827 ± 197 nM; IC50 [4, 12]: 0.988 ± 0.305 µM; IC50 [5, 13]: 3120 ± 1470 nM
6 | O=C(Nc1ccc(-c2ccccc2)cc1)N1CCN(CCCCOC(c2ccc(F)cc2)c2ccc(F)cc2)CC1 [Compound 8] | 67 |  |  |  |  |  |  |  |  | 104 | >149 | > 10 | 6940 | 0.419 ± 0.034 | 6.3 | 1020 ± 320 | 56.3 ± 9.4 |  |  |  | Ki ([2]; Table 1, bound given in μM): > 10 µM
7 | O=C(NCc1ccc(F)cc1)N1CCN(CCCCOC(c2ccc(F)cc2)c2ccc(F)cc2)CC1 [Compound 5] | 437 ± 12 |  |  |  |  |  |  |  |  | 1.6 | 0.2 | 0.275 ± 0.021 | 706 ± 153 | 0.053 ± 0.022 | 0.1 | 6 ± 1 | 51 ± 4 |  |  |  | 
8 | O=C(NCC1(c2ccccc2)CCN(CCCCOC(c2ccc(F)cc2)c2ccc(F)cc2)CC1)Nc1ccc(F)cc1 [Compound 22] | 83 |  |  |  |  |  |  |  |  |  |  |  |  |  |  |  |  | 2.8 | 0.234 | 120.5 | IC50 ([4]; Table 4-1, bound given in μM, read-out: Reuptake Inhibition [3H]DA IC50): > 10 µM; IC50 [5, 13]: 367 ± 62 nM
9 | CC(=O)NCC1(c2ccccc2)CCN(CCCCOC(c2ccc(F)cc2)c2ccc(F)cc2)CC1 [Compound 23] |  |  |  |  |  |  |  |  |  |  |  |  |  |  |  |  |  | 1.5 | 0.258 ± 0.076 | 0.8 | Ki [1, 11]: 172 ± 14 nM; IC50 [4, 12]: 0.129 ± 0.032 µM; IC50 [5, 13]: 359 ± 78 nM
10 | O=C(NCc1ccc(F)cc1)NCC1CCCN(CCCCOC(c2ccc(F)cc2)c2ccc(F)cc2)C1 (stereo not shown) [Compound 13] | 203 ± 68 | 0.3 | 2.7 | 0.545 ± 0.194 | 60 | 0.085 ± 0.039 | 0.4 | 177 ± 18 | 136 ± 32 |  |  |  |  |  |  |  |  |  |  |  | 
